{"source": "patent US10464941B2", "about": "“Therapeutic compounds” (REGENTS OF THE UNIVERSITY OF MINNESOTA, priority 2015, dated 2019)", "key": {"LPS-pretreated mice": {"system": "LPS-pretreated mice", "assay": "animal or person", "details": "for LPS pretreated i.c.v./i.t. ratio / LPS pretreated ED50 (CI) i.t.: LPS 1 mg/kg 24 hours i.p.; for LPS pretreated ED50 (CI) i.t.: tail flick", "description": "Male ICR-CD1 mice (17-25 g; Harlan, Madison, Wis.), C3H mice (15-20 g, National Cancer Institute, Bethesda, Md.) or TLR4 knock-out mice (gift from Dr. Sabita Roy) were housed, 4 to a small box in a temperature- and humidity-controlled environment with unlimited access to food and water. They were maintained on a 12 h light/dark cycle. All experiments were approved by the Institutional Animal Care and Use Committee of the University of Minnesota (Minneapolis, Minn.).\nThe tail flick assay is used to test for antinociception described by D'Amour and Smith^64 and modified by Dewey et. al.^65 Mice are held gently in one hand with the tail positioned in the apparatus (Tail Flick Analgesia Meter, Columbus Instruments, Columbus, Ohio) for radiant heat stimulus. The tail-flick response is elicited by applying radiant heat to the dorsal side of the tail. The test latency is measured before drug treatment (control) and again after the drug treatment (test) at the peak time of the compound, a 10 s maximum cut-off time is used to prevent damage to the tail. Antinociception is quantified according to the method of Harris and Pierson^66 as the percent maximal possible effect (% MPE) which is calculated as: % MPE=(Test−Control/10−Control)×100\nA minimum of three groups of eight to ten mice are used for each dose response curve, and each mouse is used only once.\nThe compounds were tested for acute tolerance by comparing the ED80-90 dose measured on day 1 to the same dose administered and retested 24 hours later on the same mouse.\nCompounds were dissolved in 5% DMSO and diluted to less than 1% DMSO for injection. These compounds were administered in a volume of 5-μl either i.c.v (Haley and McCormick) or intrathecal (i.t.) as described for mice by Hylden and Wilcox^67 in conscious mice. […] Time course studies, including the times 5, 10, 20, 30 and 60 minutes were used to determine the peak antinociception.\nPain is a hallmark of many inflammatory conditions. […] Antinociception was evaluated using the radiant heat-induced tailflick assay. Morphine was employed as a standard opioid agonist under these conditions."}, "IL-6": {"system": "IL-6", "assay": "Proinflammatory cytokine IL-6 ELISA in LPS-stimulated microglia (BV2)", "format": "cell-based, murine", "description": "Murine primary microglia cell line (BV2) were cultured in DMEM with 10% heat-inactivated fetal bovine serum (FBS), 100 U/ml penicillin, 100 μg/ml streptomycin, 10 μg/ml gentamycin (all from Invitrogen, CA, USA). Cells were harvested on reaching 80% to 90% confluence by treating with 0.25% trypsin containing 1 mM EDTA for 5 minutes at 37° C. Cells (20,000/200 μl) were seeded on flat bottom 96 well plates and treated for 3 hrs with equimolar concentration (200 nM) of MCC22/Minocycline for 3 hrs followed by overnight treatment with LPS (1 μg/ml). At the end of the experiment, IL-6 was estimated by Sandwich ELISA using mouse IL-6 DuoSet kit (R&D Systems, Minneapolis, Minn.) in the culture supernatant."}, "[1]": {"system": "mice with cisplatin-induced hyperalgesia", "assay": "Cisplatin-induced peripheral neuropathy, mechanical hyperalgesia (von Frey)", "format": "in vivo, C3H/HeJ mice", "details": "cisplatin model", "description": "Adult male C3H/HeJ mice were tested for mechanical paw withdrawal responses on 2 consecutive days prior to treatment by determining the frequency of hind paw withdrawal evoked by a standard von Frey monofilament with a bending force of 3.9 mN applied to the plantar surface of the hind paws. Mice were then given 1 mg/kg of cisplatin intraperitoneal (i.p.) daily for 7 consecutive days and on day 14 post-injection, mechanical hyperalgesia was assessed. Compounds were administered intrathecally (i.t.) and i.p. weekly to determine peak time effects and ED50/80."}, "WDR neuron": {"system": "WDR neuron", "assay": "Extracellular recordings from dorsal horn neurons, von Frey stimulation", "format": "in vivo, mice", "details": "hind paw, 5 sec, compared with control and vehicle", "description": "Mice were anesthetized with isoflurane while maintaining core temperature at 37° C. A laminectomy exposed the lumbar spinal cord then mice were secured in a spinal frame. Extracellular recordings from dorsal horn neurons with receptive fields located on the plantar surface of the hind paw were obtained using glass microelectrodes lowered into the spinal cord.\nReceptive fields (RFs) of dorsal horn neurons were identified by stroking the skin and applying mild pressure. Neurons were classified functionally as low threshold (LT), wide dynamic range (WDR) and high threshold (HT) using mechanical stimulation of graded intensities. RF areas were mapped using von Frey filaments. The discharge rate of spontaneous activity was recorded for 3 minutes. Mechanical response thresholds were determined and an increasing series of von Frey filaments were applied, each for 5 sec. Action potentials and the time of stimulus application were stored on a computer. Comparisons of discharge rates were made between vehicle and MCC22."}, "HbSS and HbAS mice": {"system": "HbSS and HbAS mice", "assay": "Sickle cell disease mice, paw withdrawal frequency", "format": "in vivo, Townes transgenic humanized mice", "details": "8.0 μmol/kg i.p.", "description": "Townes transgenic humanized mice expressing sickle hemoglobin (HbSS/HbAS) and normal human hemoglobin (HbAA) controls (4-12 weeks of age, 20-25 g) were used in this study. Mice were characterized for hyperalgesia by quantifying cutaneous mechanical sensitivity of the hind paw and forelimb grip force. Mechanical sensitivity of the hind paw was evaluated by determining the frequency of withdrawal responses and paw withdrawal threshold. The frequency of paw withdrawal evoked by a standard von Frey monofilament with a bending force of 9.3 mN applied to the plantar surface of the hind paws was determined from 10 trials on each paw. Withdrawal threshold was determined using an electronic von Frey anesthesiometer pressed against the plantar surface with increasing force until withdrawal occurred. To assess deep tissue hyperalgesia, the tensile force of peak forelimb exertion was measured using a computerized grip force meter. To evaluate the analgesic effects of MCC22, paw withdrawal frequency was determined before and at various times after administration of […] i.p."}}, "note": "Values joined by “and” are separate entries in the source; they are usually repeats but may differ in a detail not shown here. Equal values may be shown once. Marks after values point to notes of the source that are not given here."}
{"molecule": "Cc1ccc(N(CCCN2CCC(Cc3ccc(C(N)=O)cc3)CC2)C(=O)C2CCN(C(=O)COCC(=O)NCCCCCCCCCCNC(=O)COCC(=O)N[C@H]3CC[C@@]4(O)C5Cc6ccc(O)c7c6[C@@]4(CCN5C)[C@H]3O7)CC2)cc1Cl", "note": "[Compound 3e, N-(3-(4-(4-carbamoylbenzyl)piperidin-1-yl)propyl)-N-(3-chloro-4-methylphenyl)-1-(22-(((4aS,7S,7aR,12bS)-4a,9-dihydroxy-3-methyl-2,3,4,4a,5,6,7,7a-octahydro-1H-4,12-methanobenzofuro[3,2-e]isoquinolin-7-yl)amino)-5,18,22-trioxo-3,20-dioxa-6,17-diazadocosan-1-oyl)piperidine-4-carboxamide]", "values": [{"measurement": "LPS pretreated i.c.v./i.t. ratio", "setting": "LPS-pretreated mice", "result": "~34,000^d"}, {"measurement": "LPS pretreated ED50 (CI) i.t.", "setting": "LPS-pretreated mice; i.t.", "result": 0.0149, "unit": "pmol/mouse"}, {"measurement": "LPS pretreated ED50 (CI) i.t.", "setting": "LPS-pretreated mice; i.t., listed as MCC22", "result": 0.0146, "unit": "pmol/mouse"}, {"measurement": "LPS pretreated i.c.v./i.t. ratio", "setting": "LPS-pretreated mice; listed as MCC22", "result": "34,000 and 34,223"}, {"measurement": "FIG. 4 LPS/MCC22 (value with interval)", "setting": "LPS-pretreated mice; LPS pretreated mice", "result": "0.015 (0.01-0.03)"}, {"measurement": "percent maximal possible effect at highest dose measured", "setting": "LPS-pretreated mice; LPS pretreated, i.c.v., 500 pmol/mouse", "result": "41.1 ± 12.9", "unit": "%"}, {"measurement": "potency in TLR4 KO mice", "setting": "LPS-pretreated mice; LPS-pretreated TLR4 KO mice", "result": "not reduced"}, {"measurement": "effect of MK801 on antinociception", "setting": "LPS-pretreated mice; LPS-pretreated mice treated i.t. with NMDA receptor antagonist MK801, then MCC22", "result": "virtually no effect"}, {"measurement": "i.t. potency ratio, morphine/MCC22", "setting": "LPS-pretreated mice; LPS-pretreated mice, i.t.", "result": 2400}, {"measurement": "ED50", "setting": "LPS-pretreated mice; Mus musculus, ip, read-out: ED50 i.p.", "result": 5.6, "unit": "µmol/kg"}, {"measurement": "ED50 values (95% CI) LPS (thermal)", "setting": "LPS-pretreated mice; i.t., LPS thermal hyperalgesia model", "result": 0.015, "unit": "pmol/mouse"}, {"measurement": "potency increase over 19-atom spacer homologue 3c", "setting": "LPS-pretreated mice; i.t., LPS-pretreated mice", "result": "> 700", "unit": "fold"}, {"measurement": "tolerance upon repeated administration", "setting": "LPS-pretreated mice; i.t., LPS-pretreated mice", "result": "without signs of tolerance"}, {"measurement": "potency increase over 19-atom spacer homologue 3c", "setting": "LPS-pretreated mice; i.t., LPS-pretreated mice, listed as MCC22", "result": "at least 700 fold"}, {"measurement": "LPS-treated/control potency ratio", "setting": "LPS-pretreated mice; i.t., listed as MCC22", "result": "3070 and 3131"}, {"measurement": "ED50 potency ratio (β-FNA-treated/control)", "setting": "LPS-pretreated mice; inflamed mice pretreated with β-FNA", "result": 96.6}, {"measurement": "Relative Potency relative to a mixture of monovalent mu agonist (4) and CCR5 antagonist (2)", "setting": "LPS-pretreated mice; mouse, in vivo", "result": "~3500"}, {"measurement": "potency relative to morphine or monovalent control ligand 4", "setting": "LPS-pretreated mice; mouse, in vivo", "result": "~1500", "unit": "fold"}, {"measurement": "Relative Potency relative to a mixture of monovalent mu agonist (4) and CCR5 antagonist (2)", "setting": "LPS-pretreated mice; mouse, in vivo, listed as MCC22", "result": 3500}, {"measurement": "attenuation of IL-6 secretion", "setting": "IL-6; 200 nM, 3 hrs pretreatment, LPS 1 μg/ml overnight, microglial supernatant", "result": "~30", "unit": "%"}, {"measurement": "IL-6 secretion when combined with minocycline", "setting": "IL-6; MCC22 combined with minocycline, LPS", "result": "further attenuated"}, {"measurement": "ED50 (95% CI) i.p.", "setting": "[1]; i.p.", "result": 3.07, "unit": "pmol/mouse"}, {"measurement": "peak time", "setting": "[1]; i.p.", "result": 30, "unit": "min"}, {"measurement": "tolerance", "setting": "[1]; i.p.", "result": "did not exhibit tolerance"}, {"measurement": "ED50 (95% CI) i.t.", "setting": "[1]; i.t.", "result": 0.0004, "unit": "pmol/mouse"}, {"measurement": "change of potency with time", "setting": "[1]; i.t.", "result": "increased in potency over 115 days"}, {"measurement": "peak time", "setting": "[1]; i.t.", "result": 20, "unit": "min"}, {"measurement": "tolerance", "setting": "[1]; i.t.", "result": "no tolerance"}, {"measurement": "responses of WDR neuron evoked by 1.0 g (9.3 mN) von Frey filament", "setting": "WDR neuron", "result": "significantly reduced responses"}, {"measurement": "time to reduced hyperalgesia (decrease in paw withdrawal frequency)", "setting": "HbSS and HbAS mice", "result": "≤ 30", "unit": "min"}]}
